Values of other authors as cited in patent publication US20220213156A1, “Peptides for use in therapy or prophylaxis of Herpesviridae-infections” (priority 2019, published 2022).
pIC50: −log10 of the molar value. Several values for one entry are separate records, joined by “and”; a condition that tells them apart may be missing. Equal values may be shown once.

Test system: multidrug resistant CMV isolate (H815-2006)
Settings: isolate H815-2006 with UL97 L595S and UL54 V715M; cited from earlier work

Q: With `Nc1nc(O)c2ncn(COC(CO)CO)c2n1` [GCV, Ganciclovir] as the molecule, how does the pIC50 read?
A: The pIC50 was < 4.52 and 4.50.
